The source of these data is patent US20230310505A1, “COMPOSITION FOR PREVENTING HEARING LOSS CONTAINING MESENCHYMAL STEM CELLS OR EXOSOMES DERIVED THEREFROM AS ACTIVE INGREDIENT” (UNIVERSITY INDUSTRY FOUNDATION, YONSEI UNIVERSITY WONJU …, priority 2020, published 2023).

pEC50: −log10 of the molar value.

For this assay, the system named is outer hair cells (OHC) and inner hair cells (IHC) of cochlear explants. Briefly: Ototoxic hearing loss induction: cisplatin treatment of cochlear explants, hair cell viability by immunofluorescence. It counts as cell-based, ICR mice. The settings on record: cisplatin for 24 hours. The protocol:
It is also known that damage to outer hair cells (OHC) and inner hair cells (IHC) of the cochlea leads to hearing loss.
After completion of the treatment, the cochlear explants were fixed with PBS containing 4% formalin for 15 minutes and washed with PBS three times. Next, after incubation with PBS containing 0.1% Triton X-100 for 10 minutes, blocking was performed with PBS containing 4% BSA for 30 minutes. Thereafter, incubation was performed for 1 hour with a rabbit anti-mouse myosin 7a primary antibody (1:400, abcam). After washing with PBS three times, incubation was performed for 1 hour with goat anti-rabbit IgG (H+L) Alexa Fluor 488 antibody (1:500, abcam) with Phalloidine Alexa Fluor 647 (1:1000, abcam). After washing with PBS, the coverslip was transferred to a slide and a drop of Fluoroshield with DAPI (Sigma, USA) was gently applied to the coverslip. The coverslip was sealed with clear nail polish and observed under a fluorescence microscope (FIG. 1B), and the number of OHCs and IHCs was measured to calculate the cell viability (FIG. 1C).

In turn, `N.N.[Cl][Pt][Cl]` [cisplatin] showed a negative-log EC50 (pEC50) (apical turn) of 4.00; a pEC50 (middle turn and basal turn) of 4.10.
